Experiments:
sedge, umbrella = test: Test B flooded paddy test; assay type: in vivo, Cyperus difformis; details: Flood, 250 g ai/ha; 0 to 100 scale where 0 is no effect and 100 is complete control
In short: (§1)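 Flooded to 3 cm at the 2-leaf stage, pots received compound through the paddy water and were kept at that depth under greenhouse conditions. After 13–15 days, effect was rated by eye relative to controls, 0 = none and 100 = complete control.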

barnyardgrass [1] = test: Test B flooded paddy test; assay type: in vivo, Echinochloa crus-galli; details: Flood, 250 g ai/ha; 0 to 100 scale where 0 is no effect and 100 is complete control
In short: as §1

corn = test: Test C preemergence; assay type: in vivo, Zea mays; details: for Corn plant response rating: preemergence; for Plant response rating, Corn: Preemergence, 31 g ai/ha, scale 0 to 100, 0 no effect, 100 complete control
In short: (§2)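 Whole-plant greenhouse test with surfactant-containing solvent formulation, applied preemergence to sown loam–sand pots or postemergence to 2–18 cm plants. Scored by eye 13 to 15 days on, 0–100 scale.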

giant foxtail = test: Test C preemergence; assay type: in vivo, Setaria faberii; details: for Foxtail, Giant plant response rating: preemergence; for Plant response rating, Foxtail, Giant: Preemergence, 31 g ai/ha, scale 0 to 100, 0 no effect, 100 complete control
In short: as §2

barnyardgrass [2] = test: Test C preemergence; assay type: in vivo, Echinochloa crus-galli; details: for Barnyardgrass plant response rating: preemergence; for Plant response rating, Barnyardgrass: Preemergence, 31 g ai/ha, scale 0 to 100, 0 no effect, 100 complete control
In short: as §2

oilseed rape [3] = test: Test C preemergence; assay type: in vivo, Brassica napus; details: for Oilseed Rape plant response rating: preemergence; for Plant response rating, Oilseed Rape: Preemergence, 31 g ai/ha, scale 0 to 100, 0 no effect, 100 complete control
In short: as §2

large (Lg) crabgrass = test: Test C postemergence; assay type: in vivo, Digitaria sanguinalis; details: for Crabgrass, Large plant response rating: 16 g ai/ha, visual rating; for Crabgrass, Large plant response rating / Plant response rating (0 to 100), Crabgrass, Large: postemergence; for Crabgrass, Large plant response rating / Plant response rating, Crabgrass, Large: scale 0 to 100 (0 no effect, 100 complete control); for Plant response rating (0 to 100), Crabgrass, Large: 125 g ai/ha; for Plant response rating, Crabgrass, Large: Postemergence
In short: as §2

soybean = test: Test C postemergence; assay type: in vivo, Glycine max; details: for Plant response rating (0 to 100), Soybean: 125 g ai/ha, postemergence; for Plant response rating, Soybean: Postemergence, scale 0 to 100 (0 no effect, 100 complete control)
In short: as §2

barnyardgrass [4] = test: Test C postemergence; assay type: in vivo, Echinochloa crus-galli; details: for Barnyardgrass plant response rating: 16 g ai/ha, visual rating; for Barnyardgrass plant response rating / Plant response rating (0 to 100), Barnyardgrass: postemergence; for Barnyardgrass plant response rating / Plant response rating, Barnyardgrass: scale 0 to 100 (0 no effect, 100 complete control); for Plant response rating (0 to 100), Barnyardgrass: 125 g ai/ha; for Plant response rating, Barnyardgrass: Postemergence
In short: as §2

oilseed rape [5] = test: Test C postemergence; assay type: in vivo, Brassica napus; details: for Plant response rating (0 to 100), Oilseed Rape: 125 g ai/ha, postemergence; for Plant response rating, Oilseed Rape: Postemergence, scale 0 to 100 (0 no effect, 100 complete control)
In short: as §2

waterhemp = test: Test C postemergence; assay type: in vivo, Amaranthus rudis; details: for Plant response rating (0 to 100), Waterhemp: 125 g ai/ha, postemergence; for Plant response rating, Waterhemp: Postemergence, scale 0 to 100 (0 no effect, 100 complete control)
In short: as §2

velvetleaf = test: Test C postemergence; assay type: in vivo, Abutilon theophrasti; details: for Plant response rating (0 to 100), Velvetleaf: 125 g ai/ha, postemergence; for Plant response rating, Velvetleaf: Postemergence, scale 0 to 100 (0 no effect, 100 complete control)
In short: as §2

[6] = 16 g ai/ha, scale 0 to 100 (0 no effect, 100 complete control)
[7] = 62 g ai/ha, scale 0 (no effect) to 100 (complete control)
[8] = 125 g ai/ha, scale 0 (no effect) to 100 (complete control)

| SMILES | Plant response rating, Sedge, Umbrella (sedge, umbrella) | Plant response rating, Barnyardgrass (barnyardgrass [1]) | Corn plant response rating (corn; [6]) | Corn plant response rating (corn; [7]) | Corn plant response rating (corn; [8]) | Plant response rating, Corn (corn) | Foxtail, Giant plant response rating (giant foxtail; [6]) | Foxtail, Giant plant response rating (giant foxtail; [7]) | Foxtail, Giant plant response rating (giant foxtail; [8]) | Plant response rating, Foxtail, Giant (giant foxtail) | Barnyardgrass plant response rating (barnyardgrass [2]; [6]) | Barnyardgrass plant response rating (barnyardgrass [2]; [7]) | Barnyardgrass plant response rating (barnyardgrass [2]; [8]) | Plant response rating, Barnyardgrass (barnyardgrass [2]) | Oilseed Rape plant response rating (oilseed rape [3]; [6]) | Oilseed Rape plant response rating (oilseed rape [3]; [7]) | Oilseed Rape plant response rating (oilseed rape [3]; [8]) | Plant response rating, Oilseed Rape (oilseed rape [3]) | Crabgrass, Large plant response rating (large (Lg) crabgrass; 13 to 15 days) | Plant response rating (0 to 100), Crabgrass, Large (large (Lg) crabgrass) | also measured |
| --- | --- | --- | --- | --- | --- | --- | --- | --- | --- | --- | --- | --- | --- | --- | --- | --- | --- | --- | --- | --- | --- |
| FCc1cccc(Oc2ncc(Cl)cn2)c1-n1cc(Br)cn1 [Compound 83] | 45 | 0 | 0 | 0 | 15 | 0 | 5 | 100 | 100 | 75 | 5 | 45 | 90 | 5 | 75 | 98 | 100 | 95 | 5 | 10 | Plant response rating, Crabgrass, Large (large (Lg) crabgrass; 31 g ai/ha, 13 to 15 days): 5; Plant response rating, Crabgrass, Large (large (Lg) crabgrass; 62 g ai/ha): 10; Plant response rating (0 to 100), Soybean (soybean): 90; Plant response rating, Soybean (soybean; 31 g ai/ha, 13 to 15 days): 60; Plant response rating, Soybean (soybean; 62 g ai/ha): 70; Barnyardgrass plant response rating (barnyardgrass [4]; 13 to 15 days): 5; Plant response rating (0 to 100), Barnyardgrass (barnyardgrass [4]): 5; Plant response rating, Barnyardgrass (barnyardgrass [4]; 31 g ai/ha, 13 to 15 days): 5; Plant response rating, Barnyardgrass (barnyardgrass [4]; 62 g ai/ha): 5; Plant response rating (0 to 100), Oilseed Rape (oilseed rape [5]): 80; Plant response rating, Oilseed Rape (oilseed rape [5]; 31 g ai/ha, 13 to 15 days): 50; Plant response rating, Oilseed Rape (oilseed rape [5]; 62 g ai/ha): 55; Plant response rating (0 to 100), Waterhemp (waterhemp): 90; Plant response rating, Waterhemp (waterhemp; 31 g ai/ha, 13 to 15 days): 50; Plant response rating, Waterhemp (waterhemp; 62 g ai/ha): 70; Plant response rating (0 to 100), Velvetleaf (velvetleaf): 65; Plant response rating, Velvetleaf (velvetleaf; 31 g ai/ha, 13 to 15 days): 55; Plant response rating, Velvetleaf (velvetleaf; 62 g ai/ha): 50 |
| CCOc1cn(-c2c(Br)cccc2Oc2ncc(Cl)cn2)nn1 [Compound 84] | 30 | 0 | 0 | 0 | 5 | 0 | 5 | 98 | 100 | 55 | 0 | 40 | 85 | 25 | 50 | 100 | 100 | 85 | 5 | 30 | Plant response rating, Crabgrass, Large (large (Lg) crabgrass; 31 g ai/ha, 13 to 15 days): 5; Plant response rating, Crabgrass, Large (large (Lg) crabgrass; 62 g ai/ha): 5; Plant response rating (0 to 100), Soybean (soybean): 90; Plant response rating, Soybean (soybean; 31 g ai/ha, 13 to 15 days): 55; Plant response rating, Soybean (soybean; 62 g ai/ha): 90; Barnyardgrass plant response rating (barnyardgrass [4]; 13 to 15 days): 0; Plant response rating (0 to 100), Barnyardgrass (barnyardgrass [4]): 15; Plant response rating, Barnyardgrass (barnyardgrass [4]; 31 g ai/ha, 13 to 15 days): 0; Plant response rating, Barnyardgrass (barnyardgrass [4]; 62 g ai/ha): 0; Plant response rating (0 to 100), Oilseed Rape (oilseed rape [5]): 60; Plant response rating, Oilseed Rape (oilseed rape [5]; 31 g ai/ha, 13 to 15 days): 20; Plant response rating, Oilseed Rape (oilseed rape [5]; 62 g ai/ha): 45; Plant response rating (0 to 100), Waterhemp (waterhemp): 70; Plant response rating, Waterhemp (waterhemp; 31 g ai/ha, 13 to 15 days): 50; Plant response rating, Waterhemp (waterhemp; 62 g ai/ha): 70; Plant response rating (0 to 100), Velvetleaf (velvetleaf): 90; Plant response rating, Velvetleaf (velvetleaf; 31 g ai/ha, 13 to 15 days): 45; Plant response rating, Velvetleaf (velvetleaf; 62 g ai/ha): 70 |
| N#Cc1cccc(Oc2ncc(F)cn2)c1-n1cc(I)cn1 [Compound 86] | 65 | 0 | 0 | 30 | 80 | 25 | 35 | 100 | 100 | 75 | 5 | 40 | 95 | 10 | 25 | 100 | 100 | 100 | 5 | 5 | Plant response rating, Crabgrass, Large (large (Lg) crabgrass; 31 g ai/ha, 13 to 15 days): 5; Plant response rating, Crabgrass, Large (large (Lg) crabgrass; 62 g ai/ha): 5; Plant response rating (0 to 100), Soybean (soybean): 75; Plant response rating, Soybean (soybean; 31 g ai/ha, 13 to 15 days): 60; Plant response rating, Soybean (soybean; 62 g ai/ha): 70; Barnyardgrass plant response rating (barnyardgrass [4]; 13 to 15 days): 0; Plant response rating (0 to 100), Barnyardgrass (barnyardgrass [4]): 5; Plant response rating, Barnyardgrass (barnyardgrass [4]; 31 g ai/ha, 13 to 15 days): 5; Plant response rating, Barnyardgrass (barnyardgrass [4]; 62 g ai/ha): 5; Plant response rating (0 to 100), Oilseed Rape (oilseed rape [5]): 45; Plant response rating, Oilseed Rape (oilseed rape [5]; 31 g ai/ha, 13 to 15 days): 40; Plant response rating, Oilseed Rape (oilseed rape [5]; 62 g ai/ha): 60; Plant response rating (0 to 100), Waterhemp (waterhemp): 75; Plant response rating, Waterhemp (waterhemp; 31 g ai/ha, 13 to 15 days): 70; Plant response rating, Waterhemp (waterhemp; 62 g ai/ha): 60; Plant response rating (0 to 100), Velvetleaf (velvetleaf): 65; Plant response rating, Velvetleaf (velvetleaf; 31 g ai/ha, 13 to 15 days): 25; Plant response rating, Velvetleaf (velvetleaf; 62 g ai/ha): 65 |
| N#Cc1cccc(Oc2ncc(Br)cn2)c1-n1cc(I)cn1 [Compound 88] | 0 | 0 | 5 | 5 | 15 | 5 | 5 | 98 | 100 | 65 | 5 | 35 | 95 | 5 | 10 | 70 | 100 | 100 | 5 | 10 | Plant response rating, Crabgrass, Large (large (Lg) crabgrass; 31 g ai/ha, 13 to 15 days): 5; Plant response rating, Crabgrass, Large (large (Lg) crabgrass; 62 g ai/ha): 10; Plant response rating (0 to 100), Soybean (soybean): 65; Plant response rating, Soybean (soybean; 31 g ai/ha, 13 to 15 days): 65; Plant response rating, Soybean (soybean; 62 g ai/ha): 95; Barnyardgrass plant response rating (barnyardgrass [4]; 13 to 15 days): 5; Plant response rating (0 to 100), Barnyardgrass (barnyardgrass [4]): 10; Plant response rating, Barnyardgrass (barnyardgrass [4]; 31 g ai/ha, 13 to 15 days): 5; Plant response rating, Barnyardgrass (barnyardgrass [4]; 62 g ai/ha): 5; Plant response rating (0 to 100), Oilseed Rape (oilseed rape [5]): 45; Plant response rating, Oilseed Rape (oilseed rape [5]; 31 g ai/ha, 13 to 15 days): 50; Plant response rating, Oilseed Rape (oilseed rape [5]; 62 g ai/ha): 55; Plant response rating (0 to 100), Waterhemp (waterhemp): 90; Plant response rating, Waterhemp (waterhemp; 31 g ai/ha, 13 to 15 days): 75; Plant response rating, Waterhemp (waterhemp; 62 g ai/ha): 85; Plant response rating (0 to 100), Velvetleaf (velvetleaf): 55; Plant response rating, Velvetleaf (velvetleaf; 31 g ai/ha, 13 to 15 days): 35; Plant response rating, Velvetleaf (velvetleaf; 62 g ai/ha): 40 |

— US9695155B2, “Herbicidal substituted pyrimidinyloxy benzene compounds” (E. I. DU PONT DE NEMOURS AND COMPANY, priority 2013, dated 2017)
